Literature values, collected in paper PMC4646457 (PLoS ONE, 2015).

Settings: refractory advanced or metastatic breast cancer; ref ZM2006/00137/00 (EGF100151); cited from earlier work

In the case of `CCCCCOC(=O)Nc1nc(=O)n([C@@H]2O[C@H](C)[C@@H](O)[C@H]2O)cc1F` [capecitabine], the “median time to progression” value is listed as 18.6 weeks.
